Consider 59 molecules from ChEMBL document CHEMBL4177694, “Discovery of the first low-shift positive allosteric modulators for the muscarinic M1 receptor” (Bioorg Med Chem Lett, 2017).

Active and inactive are the calls of the source. No cut-off for these calls is given here. A value given as a limit tells only on which side of the number the result lay.

As a reminder, the EC50 is the concentration giving half of the maximal effect. As a reminder, the Emax is the greatest response seen or fitted, relative to the assay's reference.

For experiment [1], the target named is T1, Muscarinic acetylcholine receptor M1 (Homo sapiens, UniProt P11229).
T1 sequence (P11229 whole entry): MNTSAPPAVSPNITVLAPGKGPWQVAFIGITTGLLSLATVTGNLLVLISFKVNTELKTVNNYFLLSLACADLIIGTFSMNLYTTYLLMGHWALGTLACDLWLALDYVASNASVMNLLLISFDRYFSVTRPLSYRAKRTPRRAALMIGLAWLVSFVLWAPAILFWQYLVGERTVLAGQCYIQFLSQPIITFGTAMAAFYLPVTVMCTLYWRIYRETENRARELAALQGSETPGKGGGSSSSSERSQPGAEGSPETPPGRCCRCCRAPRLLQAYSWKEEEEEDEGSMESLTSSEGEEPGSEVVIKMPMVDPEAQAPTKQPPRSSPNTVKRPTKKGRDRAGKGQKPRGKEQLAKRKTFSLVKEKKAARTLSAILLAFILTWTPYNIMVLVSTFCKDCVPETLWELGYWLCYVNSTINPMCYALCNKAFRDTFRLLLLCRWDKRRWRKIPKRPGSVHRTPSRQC
Briefly: (§1) Positive allosteric modulation of human wild type M1 receptor assessed as increase in acetylcholine-induced calcium flux by FLIPR assay. In kind it is functional. In general terms: Calcium assays in cells follow changes in intracellular calcium, usually with a dye or a luminescent sensor.

Experiment [2] has as its target T2, Muscarinic acetylcholine receptor M1 (Homo sapiens) (UniProt P11229).
T2 sequence (whole entry): T1 sequence (P11229 whole entry)
Briefly: Positive allosteric modulation of human wild type M1 receptor assessed as increase in acetylcholine-induced calcium flux by FLIPR assay relative to acetylcholine. In kind it is functional.

Experiment [3] can be described thus: Displacement of [3H]-Ro 15-1788 from rat brain synaptosomal membranes GABA receptor after 90 mins. On the technique in general: In a radioligand displacement assay an active substance lowers the binding of a labelled ligand.
Experiment [4] has as its target T2, Muscarinic acetylcholine receptor M1 (Homo sapiens). The experiment is described as §1. Type of experiment: functional.

As to `O=[N+]([O-])c1ccc2c(c1)C(c1ccccc1)=NCC(=S)N2`, in experiment [1], the EC50 turned out to be 4480 nM. In experiment [2], the Emax turned out to be 40%. Turning to `CCC[C@@]1(C)N=C(c2ccccc2)c2cc(Cl)ccc2NC1=S`, the EC50 in experiment [1] was > 10000 nM. Consider `CC(C)[C@@H]1N=C(c2ccccc2)c2cc(-c3ccccc3)ccc2NC1=S`, for which the EC50 in experiment [1] worked out at 1470 nM. In addition, the Emax in experiment [2] worked out at 108%. Consider `CC(C)C[C@@H]1N=C(c2ccccc2)c2cc(Cl)ccc2NC1=S`, for which, in experiment [1], the EC50 turned out to be 317 nM. The maximum response (Emax) in experiment [2] is 107%.

Turning to `CC(C)[C@@H]1N=C(c2ccccc2)c2cc(Cl)ccc2N(C)C1=S`, the EC50 was > 10000 nM in experiment [1] and 73000 nM in experiment [3]. Consider `COc1ccc2c(c1)C(c1ccccc1)=N[C@@H](C(C)C)C(=S)N2`, for which, in experiment [1], the concentration giving a half-maximal response (EC50) worked out at 559 nM. For the same molecule, the Emax in experiment [2] stood at 105%. As to `CC(C)[C@@H]1N=C(c2ccccc2)c2cc(Cl)ccc2N=C1N`, the outcome in experiment [4] was inactive. As to `FC(F)(F)c1ccc2c(c1)C(c1ccccc1)=NCC(=S)N2`, the EC50 in experiment [1] turned out to be 516 nM. Also, the Emax in experiment [2] turned out to be 92%. Consider `CC[C@@H]1N=C(c2ccccc2)c2cc(Cl)ccc2NC1=S`, for which the half-maximal effective concentration (EC50) in experiment [1] is 187 nM. The Emax in experiment [2] was 66%. For the molecule `Fc1ccccc1C1=NCC(=S)Nc2ccc(I)cc21`, the EC50 in experiment [1] amounted to 2150 nM. Also, the Emax in experiment [2] turned out to be 63%. On to `S=C1Nc2ccc(Cl)cc2C(c2ccccc2)=NC1n1ccnc1` (racemic), for which the EC50 in experiment [1] is > 10000 nM.

As to `S=C1CN=C(c2ccccc2)c2ccccc2N1`, the EC50 in experiment [1] was > 10000 nM. As to `Fc1ccccc1C1=N[C@H](c2ccccc2)C(=S)Nc2ccc(Cl)cc21`, the half-maximal effective concentration (EC50) in experiment [1] was > 10000 nM. Regarding `CC(C)C1C(=S)Nc2ccc(Cl)cc2C(c2ccccc2)=[N+]1[O-]` (stereo not given), the EC50 in experiment [1] amounted to 349 nM. The Emax in experiment [2] was found to be 112%. The corresponding values for `CC(C)[C@@H]1N=C(c2ccccc2)c2cc(OC(F)(F)F)ccc2NC1=S` are 232 nM and 127%. For `CCC[C@@H]1N=C(c2ccccc2)c2cc(Cl)ccc2NC1=S`, in that order: 238 nM and 129%.

Consider `Cc1ccc2c(c1)C(c1ccccc1)=NC(C(C)C)C(=S)N2` (stereo not given), for which the EC50 in experiment [1] was 62 nM. Also, the Emax in experiment [2] stood at 129%. As for `CCCC1=N[C@@H](C(C)C)C(=S)Nc2ccc(Cl)cc21`, the EC50 in experiment [1] was > 10000 nM.

With `CC(C)C[C@@H]1N=C(c2ccccc2Cl)c2cc(Cl)ccc2NC1=S`, the EC50 in experiment [1] was > 10000 nM.

As for `CC(C)[C@H]1N=C(c2ccccc2F)c2cc(Cl)ccc2NC1=S`, the EC50 in experiment [1] was found to be 420 nM. For the same molecule, in experiment [2], the Emax was found to be 119%. In the case of `CC(=O)c1ccc2c(c1)C(c1ccccc1)=NC(C)C(=S)N2` (stereo not given), the EC50 in experiment [1] was > 10000 nM. In the case of `CCC1N=C(c2ccccc2)c2cc(N)ccc2NC1=S` (stereo not given), the EC50 in experiment [1] was > 10000 nM. With `CCC1CN(c2ccccc2)c2cc(Cl)ccc2NC1=S` (stereo not given), in experiment [1], the EC50 is 50 nM. Moreover, the Emax in experiment [2] was found to be 76%. `CC(C)[C@@H]1N=C(c2ccccc2)c2ccc(Cl)cc2NC1=S`: the EC50 in experiment [1] came out at 399 nM. For the same molecule, the Emax in experiment [2] amounted to 117%. For `SC1=Nc2ccc(Cl)cc2C(c2ccccc2)=NC1`, in that order: 180 to 857 nM and 82 to 92%.

`C[C@@H]1N=C(c2ccccc2)c2ccccc2NC1=S` had an EC50 in experiment [3] of 68000 nM. With `Cc1ccc2c(c1)C(c1ccccc1)=NCC(=S)N2`, the EC50 in experiment [1] stood at 3680 nM. Moreover, in experiment [2], the maximal response (Emax) was 91%.

As to `S=C1Nc2ccc(Cl)cc2C(c2ccccc2)=N[C@H]1CC1CC1`, the EC50 in experiment [1] stood at 251 nM. In experiment [2], the Emax was 108%. With `CCOC(=O)C1N=C(c2ccccc2)c2cc(Cl)ccc2NC1=S` (racemic), the half-maximal effective concentration (EC50) in experiment [1] was > 10000 nM. With `CC1N=C(c2ccccc2)c2ccccc2NC1=S` (racemic), the EC50 in experiment [1] is 552 nM; in experiment [3], 61 nM. Also, the Emax in experiment [2] is 88%. For `CN1C(=S)CN=C(c2ccccc2)c2cc(Cl)ccc21` [SULAZEPAM], the EC50 in experiment [1] is > 10000 nM. The same measure, in the same setting: next, `CCOC1N=C(c2ccccc2)c2cc(Cl)ccc2NC1=S` (racemic): > 10000 nM. On to `CC(C)[C@@H]1N=C(c2ccccc2)c2cc(Cl)ccc2NC1=O`, for which the concentration giving a half-maximal response (EC50) in experiment [1] stood at 777 nM; in experiment [3] it was 57000 nM. In experiment [2], the Emax was 90%. The corresponding values for `CC(C)[C@H]1N=C(c2ccccc2)c2cc(Cl)ccc2NC1=S` are 521 nM, 267000 nM and 86%. Regarding `Fc1ccccc1C1=NCC(=S)Nc2ccc(Cl)cc21`, in experiment [1], the EC50 is 317 nM. Besides, in experiment [2], the Emax came out at 95%. As for `Fc1ccccc1C1=N[C@@H](c2ccccc2)C(=S)Nc2ccc(Cl)cc21`, the EC50 in experiment [1] worked out at 1470 nM. Further, the Emax in experiment [2] is 75%. For `CC(C)[C@@H]1N=C(c2cccc(Cl)c2)c2cc(Cl)ccc2NC1=S`, in that order: 172 nM and 112%. Consider `S=C1Cc2ccccc2-c2cc(Cl)ccc2N1`, for which the EC50 in experiment [1] was > 10000 nM. With `CC(C)=C1N=C(c2ccccc2)c2cc(Cl)ccc2NC1=S`, in experiment [1], the EC50 is > 10000 nM. As to `CSc1ccc2c(c1)C(c1ccccc1)=NCC(=S)N2`, the concentration for a half-maximal effect (EC50) in experiment [1] was 870 nM. Moreover, in experiment [2], the Emax turned out to be 71%.

Regarding `CC(C)[C@@H]1N=C(c2ccccn2)c2cc(Cl)ccc2NC1=S`, the EC50 in experiment [1] was determined as 289 nM. Besides, the Emax in experiment [2] was determined as 103%. As to `S=C1CN=C(c2ccccc2)c2cc(Br)ccc2N1`, the EC50 in experiment [1] is 962 nM. For the same molecule, the Emax in experiment [2] was 92%.

Take `CC(=O)OC1C=C(c2ccccc2F)c2cc(Cl)ccc2NC1=S` (stereo not given): in experiment [1], the EC50 turned out to be 649 nM. Besides, the maximal response (Emax) in experiment [2] amounted to 92%. The corresponding values for `C[C@@H]1N=C(c2ccccc2)c2cc(Cl)ccc2NC1=S` are 103 nM and 67%. On to `FC(F)(F)C[C@@H]1N=C(c2ccccc2)c2cc(Cl)ccc2NC1=S`, for which, in experiment [1], the EC50 amounted to 311 nM. Further, the Emax in experiment [2] came out at 74%.

`CC1N=C(c2ccccc2)c2cc(C#N)ccc2NC1=S` (stereo not given): the EC50 in experiment [1] was > 10000 nM. In experiment [2], the Emax is 47%.

Turning to `CC(C)(O)C1N=C(c2ccccc2)c2cc(Cl)ccc2NC1=S` (racemic), in experiment [1], the EC50 was determined as 1850 nM. In experiment [2], the Emax came to 113%. Consider `Fc1ccccc1C1=NCC(=S)Nc2ccccc21`, for which, in experiment [1], the EC50 is > 10000 nM. Consider `CC(C)[C@@H]1N=C(c2cccnc2)c2cc(Cl)ccc2NC1=S`, for which the EC50 in experiment [1] came out at 275 nM. Further, in experiment [2], the Emax was 112%. For `Fc1ccccc1C1=CCC(=S)Nc2ccc(Cl)cc21`, in that order: 317 nM and 95%. With `CC(C)[C@@H]1N=C(C2CCCCC2)c2cc(Cl)ccc2NC1=S`, the EC50 in experiment [1] stood at 414 nM. In addition, in experiment [2], the Emax came out at 75%.

As for `S=C1COC(c2ccccc2)c2cc(Cl)ccc2N1` (stereo not given), the EC50 in experiment [1] was > 10000 nM. On the same count and under the same terms, the value for `CC(C)[C@@H]1N=C(c2ccc(C(F)(F)F)cc2)c2cc(Cl)ccc2NC1=S` was > 10000 nM.

For the molecule `CC(C)C1C(=O)N(c2ccccc2)c2cc(Cl)ccc2NC1=S` (stereo not given), the EC50 in experiment [1] came to 267 nM. Besides, the maximal response (Emax) in experiment [2] turned out to be 93%. With `COC(C)C1N=C(c2ccccc2)c2cc(Cl)ccc2NC1=S` (racemic), the EC50 in experiment [1] came out at 354 nM. Moreover, in experiment [2], the Emax was found to be 98%.

As to `CC(C)[C@@H]1N=C(N2CCCCC2)c2cc(Cl)ccc2NC1=S`, in experiment [1], the EC50 is > 10000 nM.

In the case of `S=C1CC(c2ccccc2)=Nc2cc(Cl)ccc2N1`, the EC50 in experiment [1] is > 10000 nM. Consider `Fc1ccccc1C1=N[C@@H](C2CC2)C(=S)Nc2ccc(Cl)cc21`, for which the EC50 in experiment [1] amounted to 165 nM. Also, the Emax in experiment [2] turned out to be 79%. With `CCC[C@]1(C)N=C(c2ccccc2)c2cc(Cl)ccc2NC1=S`, in experiment [1], the EC50 was found to be 104 nM.
